Source: patent US9750249B2, “Synergistic paraffinic oil and boscalid fungicides” (priority 2010, dated 2017)

Tested on: dollar spot
Experiment: Field trial: dollar spot counts on putting-green plots
Format: in vivo, Sclerotinia homoeocarpa
Settings: Table 2a; combination even with half the recommended application rate of boscalid
Text: Studies were established in a completely randomized design with three replications. The treatments included an untreated (fertilizer only) treatment and twenty-three rate/interval combinations of Civitas™ and Emerald™. The label-recommended rates of Civitas™ application to control dollar spot on turfgrass are 8-32 oz/1000 sq.ft. The label-recommended rate of Emerald™ application to control dollar spot on turfgrass is 0.13 oz/1000 sq.ft.
Initial treatments were made on June 16 and continued for 15 weeks (final treatments were made on September 27). […]
Precipitation was such that supplemental irrigation was not required on a regular basis. […] Treatment differences at individual measurement events were evaluated using analysis of variance and Fisher's protected least significant difference (LSD). […]
Applying the approach to identifying synergy as set out in S. R. Colby, “Calculating synergistic and antagonistic responses of herbicide combinations”, Weeds 15, 20-22 (1967), expected efficacy, E, may be expressed as: E=X+Y(100−X)/100, where X is the efficacy, expressed in % of the untreated control, of the first composition (boscalid), and Y is the efficacy, expressed in % of the untreated control, of the second composition (Civitas).

## O=C(Nc1ccccc1-c1ccc(Cl)cc1)c1cccnc1Cl [boscalid, 2-chloro-N-(4′-chloro[1,1′-biphenyl]-2-yl)-nicotinamide]
  sustained elimination of dollar spot: neither boscalid alone nor CIVITAS alone are capable of sustained elimination of dollar spot
